Reference: patent US20180273531A1, “PYRIMIDINE COMPOUND AND MEDICAL USE THEREOF” (Japan Tobacco Inc., priority 2004, published 2018)

What was measured:
Type in all cases: cell-based
p15 protein = assay: Evaluation of p15 induction activity (Western blotting); settings: test substance 0.1 μM, 24 hrs, ACHN cells or HT-29 cells, compared to DMSO, n=2
Method: ACHN cells or HT-29 cells were cultured in a 6 well plate at 2.5×10^5 cells/1.8 mL/well for 24 hrs, then a test substance (0.1 μM) dissolved in DMSO was added. After 24 hrs, cells were detached using trypsin-EDTA (ethylene diamine tetraacetic acid) and solubilized with NuPAGE LDS sample buffer (Invitrogen). Using an RC DC protein assay kit (BIO-RAD), the protein concentration of the sample was quantitated, and a sample in an amount corresponding to 10 μg of BSA (bovine serum albumin) was analyzed by Western blotting using an anti-p15 antibody. The density of the band stained with the anti-p15 antibody was measured by a densitometer to quantify the amount of p15 protein. As a control, DMSO was used and the test was performed with n=2 and the average protein amount was determined.

[1] = test system: colorectal cancer cell line HT-29 cells; assay: Growth inhibitory effect against cancer cell lines (3H-thymidine uptake), HT-29; settings: Homo sapiens, HT-29, inhibition of 3H-thymidine uptake; test substance 18 hrs, then 3H-thymidine 6 hrs; triplicate
Method: (§1) Renal cancer cell line ACHN cell or colorectal cancer cell line HT-29 cells were cultured in a 96 well plate at 1.0×10^4 cells/90 μL/well for 24 hrs, then a test substance dissolved in DMSO (dimethyl sulfoxide) was added. After 18 hrs, ^3H-thymidine (0.25 μCi/well) was added and the cells were cultured for 6 hrs. Using a cell harvester, the cells were recovered on a UniFilter-96 GF/B glass filter and the ^3H radioactivity uptaken by the cells was measured by TopCount (Packard). As a control, DMSO was used and the activity of the test substance was expressed in the concentration (IC50) necessary for inhibiting ^3H radioactivity uptaken by the cell to 50% of that of the control group. The measurements were made in triplicate.

[2] = test system: Renal cancer cell line ACHN cell; assay: Growth inhibitory effect against cancer cell lines (3H-thymidine uptake), ACHN; settings: Homo sapiens, ACHN
Method: as §1

Row | IC50 [1] | IC50 [2] | Structure (SMILES) | fold induction at 0.1 µM (p15 protein)
1 | 100 to 1000 nM | – | CNc1ccc(Nc2cc(=O)n(C)c3c2c(=O)n(C2CC2)c(=O)n3-c2ccccc2)cc1 [Example 1-136] | ≥ 1.5
2 | 10 to 100 nM | 100 to 1000 nM | Cn1c(=O)cc(Nc2ccc(Br)cc2F)c2c(=O)n(C3CC3)c(=O)n(-c3cccc(NS(=O)(=O)c4cccnc4)c3)c21 [Example 1-335] | –
3 | 10 to 100 nM | – | Cc1ccc(Nc2cc(=O)n(C)c3c2c(=O)n(C2CC2)c(=O)n3-c2ccccc2)c(F)c1 [Example 1-168] | ≥ 1.5
4 | 10 to 100 nM | 100 to 1000 nM | Cn1c(=O)cc(Nc2ccc(Br)cc2F)c2c(=O)n(C3CC3)c(=O)n(-c3cccc(OCCN4CCOCC4)c3)c21 [Example 1-232] | –
5 | 10 to 100 nM | 100 to 1000 nM | CCc1ccc(Nc2c3c(=O)n(CC)c(=O)n(-c4cccc(NS(C)(=O)=O)c4)c3c(C)c(=O)n2C)c(F)c1 [Example 4-44] | –
6 | < 10 nM | 10 to 100 nM | CCc1ccc(Nc2c3c(=O)n(C4CC4)c(=O)n(-c4cccc(NS(=O)(=O)CC)c4)c3c(C)c(=O)n2C)c(F)c1 [Example 4-26] | –
7 | < 10 nM | 10 to 100 nM | CCn1c(=O)c2c(Nc3ccc(I)cc3F)n(C)c(=O)c(C)c2n(-c2cccc(NS(=O)(=O)CC)c2)c1=O [Example 4-19] | –
8 | 10 to 100 nM | 100 to 1000 nM | CC(=O)Nc1cc(Cl)cc(-n2c(=O)n(C3CC3)c(=O)c3c(Nc4ccc(I)cc4F)n(C)c(=O)c(C)c32)c1 [Example 4-37] | –
9 | 10 to 100 nM | – | COc1ccccc1-n1c(=O)n(C2CC2)c(=O)c2c(Nc3ccc(Br)cc3F)cc(=O)n(C)c21 [Example 1-166] | ≥ 1.5
10 | 100 to 1000 nM | 100 to 1000 nM | Cc1c(=O)n(C)c(Nc2ccc(Br)cc2)c2c(=O)n(C3CC3)c(=O)n(-c3ccccc3)c12 [Example 3-1] | –
11 | 10 to 100 nM | 100 to 1000 nM | Cn1c(=O)cc(Nc2ccc3sccc3c2F)c2c(=O)n(C3CC3)c(=O)n(-c3ccccc3)c21 [Example 1-343] | –
12 | 100 to 1000 nM | – | Cn1c(=O)cc(Nc2ccc(Br)c(F)c2)c2c(=O)n(C3CC3)c(=O)n(-c3ccccc3)c21 [Example 1-151] | ≥ 1.5
13 | < 10 nM | 10 to 100 nM | C#Cc1ccc(Nc2c3c(=O)n(CC)c(=O)n(-c4cccc(NS(=O)(=O)CC)c4)c3c(C)c(=O)n2C)c(F)c1 [Example 4-40] | –
14 | 10 to 100 nM | 100 to 1000 nM | Cc1c(=O)n(C)c(Nc2ccc(Br)cc2F)c2c(=O)n(C3CC3)c(=O)n(-c3ccc([N+](=O)[O-])cc3)c12 [Example 4-5] | –
15 | 10 to 100 nM | 100 to 1000 nM | Cc1c(=O)n(C)c(Nc2ccc(I)cc2F)c2c(=O)n(C3CC3)c(=O)n(-c3cccc(NC(=O)NCCO)c3)c12 [Example 4-95] | –
16 | < 10 nM | 10 to 100 nM | CCc1ccc(Nc2c3c(=O)n(C4CC4)c(=O)n(-c4cccc(NS(C)(=O)=O)c4)c3c(C)c(=O)n2C)c(F)c1 [Example 4-25] | –
17 | 100 to 1000 nM | – | Cc1cc(Br)ccc1Nc1cc(=O)n(C)c2c1c(=O)n(C1CC1)c(=O)n2-c1ccccc1 [Example 1-156] | ≥ 1.5
18 | – | 100 to 1000 nM | CCc1ccc(Nc2c3c(=O)n(C4CC4)c(=O)n(-c4cccc(NC(C)=O)c4)c3c(C)c(=O)n2CC)c(F)c1 [Example 4-47] | –
19 | 100 to 1000 nM | – | CN(C)c1ccc(Nc2cc(=O)n(C)c3c2c(=O)n(C2CC2)c(=O)n3-c2ccccc2)cc1F [Example 1-143] | ≥ 1.5
20 | 100 to 1000 nM | – | COc1ccc(-n2c(=O)n(C3CC3)c(=O)c3c(Nc4ccc(Br)cc4)cc(=O)n(C)c32)cc1 [Example 1-183] | ≥ 1.5
21 | – | 100 to 1000 nM | CCc1ccc(Nc2c3c(=O)n(C4CC4)c(=O)n(-c4cccc(NS(C)(=O)=O)c4)c3c(C)c(=O)n2CC)c(F)c1 [Example 4-39] | –
22 | 100 to 1000 nM | – | Cn1ccc2cc(Nc3cc(=O)n(C)c4c3c(=O)n(C3CC3)c(=O)n4-c3ccccc3)ccc21 [Example 1-138] | ≥ 1.5
23 | 100 to 1000 nM | – | CC1CC1n1c(=O)c2c(Nc3ccc(Br)cc3)cc(=O)n(C)c2n(-c2ccccc2)c1=O (stereo not drawn) [Example 1-153] | ≥ 1.5
24 | 100 to 1000 nM | – | Cn1c(=O)cc(Nc2ccc(Cl)cc2Cl)c2c(=O)n(C3CC3)c(=O)n(-c3ccccc3)c21 [Example 1-163] | ≥ 1.5
25 | – | 10 to 100 nM | CNS(=O)(=O)c1cccc(-n2c(=O)n(C3CC3)c(=O)c3c(Nc4ccc(Br)cc4F)cc(=O)n(C)c32)c1 [Example 1-294] | –
26 | 100 to 1000 nM | – | CN(C)c1ccc(Nc2cc(=O)n(C)c3c2c(=O)n(C2CC2)c(=O)n3-c2ccc(F)cc2)cc1 [Example 1-132] | ≥ 1.5
27 | 100 to 1000 nM | – | CN(C)c1ccc(Nc2cc(=O)n(C)c3c2c(=O)n(C2CC2)c(=O)n3-c2cccc(F)c2)cc1 [Example 1-133] | ≥ 1.5
28 | 100 to 1000 nM | – | Cn1c(=O)cc(Nc2ccc3[nH]ccc3c2)c2c(=O)n(C3CC3)c(=O)n(-c3ccccc3)c21 [Example 1-165] | ≥ 1.5
29 | – | 100 to 1000 nM | Cn1c(=O)cc(Nc2ccc(Br)cc2F)c2c(=O)n(C3CC3)c(=O)n(-c3cccc(NS(=O)(=O)CCN4CCOCC4)c3)c21 [Example 1-339] | –

Second part, the compound before the results:

Row | Structure (SMILES) | IC50 [1] | IC50 [2] | fold induction at 0.1 µM (p15 protein)
30 | CCn1c(=O)c2c(Nc3ccc(Br)cc3)cc(=O)n(C)c2n(-c2ccccc2F)c1=O [Example 1-116] | 100 to 1000 nM | – | ≥ 1.5
31 | Cn1c(=O)cc(Nc2ccccc2)c2c(=O)n(-c3ccccc3)c(=O)n(-c3ccccc3)c21 [Example 1-12] | – | – | ≥ 1.5
32 | Cn1c(=O)cc(Nc2ccc(Cl)c(Cl)c2)c2c(=O)n(-c3ccccc3)c(=O)n(-c3ccccc3)c21 [Example 1-17] | – | – | ≥ 1.5
33 | Cc1ccccc1-n1c(=O)n(CC(F)(F)F)c(=O)c2c(Nc3ccc(Br)cc3)cc(=O)n(C)c21 [Example 1-108] | – | – | ≥ 1.5
34 | Cc1cccc(-n2c(=O)n(C3CC3)c(=O)c3c(Nc4ccc(N(C)C)cc4)cc(=O)n(C)c32)c1 [Example 1-127] | 100 to 1000 nM | – | ≥ 1.5
35 | Cn1c(=O)cc(Nc2ccc(Cl)cc2)c2c(=O)n(-c3ccc(F)cc3)c(=O)n(-c3ccc(F)cc3)c21 [Example 1-79] | – | – | ≥ 1.5
36 | CCn1c(=O)c2c(Nc3ccc(Cl)cc3)cc(=O)n(C)c2n(-c2ccccc2C)c1=O [Example 1-109] | – | – | ≥ 1.5
37 | CCn1c(=O)c2c(Nc3ccc(Br)cc3)cc(=O)n(C)c2n(-c2ccccc2C)c1=O [Example 1-111] | 100 to 1000 nM | – | ≥ 1.5
38 | CCNc1ccc(Nc2cc(=O)n(C)c3c2c(=O)n(C2CC2)c(=O)n3-c2ccccc2)cc1 [Example 1-137] | – | – | ≥ 1.5
39 | Cn1c(=O)cc(Nc2ccc(N)cc2)c2c(=O)n(-c3ccccc3)c(=O)n(-c3ccccc3)c21 [Example 1-46] | – | – | ≥ 1.5
40 | Cn1c(=O)cc(Nc2ccc(F)cc2F)c2c(=O)n(C3CC3)c(=O)n(-c3ccccc3)c21 [Example 1-162] | – | – | ≥ 1.5
41 | Cn1c(=O)cc(Nc2ccc(O)cc2)c2c(=O)n(C3CC3)c(=O)n(-c3ccccc3)c21 [Example 1-172] | – | – | ≥ 1.5
42 | COc1ccc(Nc2cc(=O)n(C)c3c2c(=O)n(C2CC2)c(=O)n3-c2ccccc2)c(C)c1 [Example 1-154] | – | – | ≥ 1.5
43 | CCn1c(=O)c2c(Nc3ccc(Br)cc3)cc(=O)n(C)c2n(-c2ccccc2)c1=O [Example 1-96] | 100 to 1000 nM | – | ≥ 1.5
44 | CCn1c(=O)c2c(Nc3ccc(N(C)C)cc3)cc(=O)n(C)c2n(-c2ccccc2F)c1=O [Example 1-117] | 100 to 1000 nM | – | ≥ 1.5
45 | Cc1ccc(-n2c(=O)n(C3CC3)c(=O)c3c(Nc4ccc(N(C)C)cc4)cc(=O)n(C)c32)cc1 [Example 1-126] | 100 to 1000 nM | – | ≥ 1.5
46 | COc1ccc(Nc2cc(=O)n(C)c3c2c(=O)n(C2CC2)c(=O)n3-c2ccccc2)c(OC)c1 [Example 1-146] | – | – | ≥ 1.5
47 | Cn1c(=O)cc(NCC(C)(C)C)c2c(=O)n(-c3ccccc3)c(=O)n(-c3ccccc3)c21 [Example 1-36] | – | – | ≥ 1.5
48 | CCn1c(=O)c2c(Nc3ccc(N(C)C)cc3)cc(=O)n(C)c2n(-c2ccccc2C)c1=O [Example 1-110] | – | – | ≥ 1.5
49 | Cn1c(=O)cc(Nc2ccc(Br)cc2)c2c(=O)n(C3CCC3)c(=O)n(-c3ccccc3)c21 [Example 1-107] | – | – | ≥ 1.5
50 | Cn1c(=O)cc(Nc2ccc3c(c2)OCO3)c2c(=O)n(-c3ccccc3)c(=O)n(-c3ccccc3)c21 [Example 1-16] | – | – | ≥ 1.5
51 | Cn1c(=O)cc(Nc2ccccc2F)c2c(=O)n(C3CC3)c(=O)n(-c3ccccc3)c21 [Example 1-173] | – | – | ≥ 1.5
52 | CCn1ccc2cc(Nc3cc(=O)n(C)c4c3c(=O)n(C3CC3)c(=O)n4-c3ccccc3)ccc21 [Example 1-167] | – | – | ≥ 1.5
53 | CCNc1ccc(Nc2cc(=O)n(C)c3c2c(=O)n(-c2ccccc2)c(=O)n3-c2ccccc2)cc1 [Example 1-65] | – | – | ≥ 1.5
